Assay results taken from ChEMBL document CHEMBL5528040, “Design and Synthesis of Novel 3-Nitro-1H-1,2,4-triazole-1,2,3-triazole-1,4-disubstituted Analogs as Promising Antitrypanosomatid Agents: Evaluation of In Vitro Activity against Chagas Disease and Leishmaniasis” (J Med Chem, 2024).

Tests used:
[1] = Mutagenicity in Salmonella typhimurium TA98 assessed as number of revertant colonies at 10 ug per plate incubated for 90 mins by AMES test (reference value: 22.67 +/- 0.58); type: toxicity, Salmonella enterica subsp. enterica serovar Typhimurium; settings: in vivo, 1.5 h, dose 10 µg
[2] = Selectivity index, ratio of CC50 for cytotoxicity against monkey LLC-MK2 cells to IC50 for antitrypanosomal activity against Trypanosoma cruzi Tulahuen amastigotes transfected with Escherichia coli beta-galactosidase LacZ gene infected in monkey LLC-MK2 cells; type: toxicity, cell-based; settings: read-out: Ratio CC50/IC50
Trypanosoma cruzi [3] = experiment: (§1) Antitrypanosomal activity against Trypanosoma cruzi Tulahuen amastigotes transfected with Escherichia coli beta-galactosidase LacZ gene infected in monkey LLC-MK2 cells assessed as inhibition of amastigotes growth incubated for 72 hrs by absorbance based microplate reader analysis; type: functional, organism-based; settings: LLC-MK2, 72 h
[4] = Cytotoxicity against monkey LLC-MK2 cells incubated for 72 hrs by MTT assay; type: toxicity, cell-based, Macaca mulatta; settings: rhesus monkey
Leishmania amazonensis = experiment: Antileishmanial activity against Leishmania amazonensis IFLA/BR/1967/PH8 amastigotes infected in murine peritoneal macrophages incubated for 24 hrs by Giemsa staining based analysis; type: functional, organism-based; settings: IFLA/BR/1967/PH8, Peritoneal macrophage
[5] = Substrate activity at Trypanosoma cruzi type I nitro reductase assessed as reduction in NADH incubated for 120 sec by spectrophotometric analysis
Trypanosoma cruzi [6] = experiment: as §1, with “Potency index, ratio of Benznidazole IC50 to test compound IC50 for antitrypanosomal” for “Antitrypanosomal”; type: functional
[7] = Mutagenicity in Salmonella typhimurium TA100 assessed as number of revertant colonies at 2.5 ug per plate incubated for 90 mins by AMES test (reference value: 88.00 +/- 2.65); type: toxicity, Salmonella enterica subsp. enterica serovar Typhimurium; settings: in vivo, 1.5 h, dose 2.5 µg

| Compound | IC50 (Trypanosoma cruzi [3]) | IC50 (Leishmania amazonensis) | pIC50 [5] | Activity [1] | selectivity ratio [2] | CC50 at 72 h [4] | Ratio IC50 (Trypanosoma cruzi [6]) | Activity [7] |
| --- | --- | --- | --- | --- | --- | --- | --- | --- |
| Nc1ccc([N+](=O)[O-])cc1N | – | – | – | 253 | – | – | – | – |
| O=C(O)c1ccc(-n2cc(Cn3cnc([N+](=O)[O-])n3)nn2)cc1 | > 50 µM | 4.7 µM | – | – | > 1 | > 50 µM | – | – |
| O=[N+]([O-])c1ncn(Cc2cn(-c3ccc(F)c(F)c3)nn2)n1 | 22.6 µM | 4.7 µM | – | – | > 4.4 | > 50 µM | – | – |
| O=[N+]([O-])c1ncn(Cc2cn(-c3cccc(C(F)(F)F)c3)nn2)n1 | 5.8 µM | 4.7 µM | – | – | > 17.2 | > 50 µM | – | – |
| CCOC(=O)c1ccc(-n2cc(Cn3cnc([N+](=O)[O-])n3)nn2)cc1 | 38.4 µM | 4.7 µM | – | – | > 1.3 | > 50 µM | – | – |
| CS(=O)(=O)c1ccc(-n2cc(Cn3cnc([N+](=O)[O-])n3)nn2)cc1 | > 50 µM | 4.7 µM | – | – | > 1 | > 50 µM | – | – |
| COc1cccc(-n2cc(Cn3cnc([N+](=O)[O-])n3)nn2)c1 | 7.93 µM | 4.7 µM | – | – | > 6.3 | > 50 µM | – | – |
| NS(=O)(=O)c1ccc(-n2cc(Cn3cnc([N+](=O)[O-])n3)nn2)cc1 | > 50 µM | 4.7 µM | – | – | > 1 | > 50 µM | – | – |
| N#Cc1cccc(-n2cc(Cn3cnc([N+](=O)[O-])n3)nn2)c1 | 7.35 µM | 4.7 µM | – | – | > 6.8 | > 50 µM | – | – |
| O=[N+]([O-])c1ncn(Cc2cn(-c3cccc(Cl)c3)nn2)n1 | 5.72 µM | 4.7 µM | – | – | > 8.74 | > 50 µM | – | – |
| O=[N+]([O-])c1ncn(Cc2cn(-c3ccc(Cl)c(C(F)(F)F)c3)nn2)n1 | 9.89 µM | 4.7 µM | – | – | > 5.05 | > 50 µM | – | – |
| O=C(O)c1cccc(-n2cc(Cn3cnc([N+](=O)[O-])n3)nn2)c1 | > 50 µM | 4.7 µM | – | – | > 1 | > 50 µM | – | – |
| O=[N+]([O-])c1cccc(-n2cc(Cn3cnc([N+](=O)[O-])n3)nn2)c1 | 24.4 µM | 4.7 µM | – | – | > 4.1 | > 50 µM | – | – |
| O=[N+]([O-])c1ncn(Cc2cn(-c3ccc4c(c3)OCO4)nn2)n1 | 13.8 µM | 89.5 µM | – | – | > 3.62 | > 50 µM | – | – |
| Nc1ccc2cc3ccccc3cc2c1 [2-AMINOANTHRACENE] | – | – | – | – | – | – | – | 977.33 |
| O=C(Cn1ccnc1[N+](=O)[O-])NCc1ccccc1 [BENZNIDAZOLE] | – | – | – | – | > 8.13 | > 50 µM | – | – |

Further compounds by falling IC50 (Trypanosoma cruzi [3]), results first:

| IC50 (Trypanosoma cruzi [3]) | IC50 (Leishmania amazonensis) | pIC50 [5] | Compound | Activity [1] | selectivity ratio [2] | CC50 at 72 h [4] | Ratio IC50 (Trypanosoma cruzi [6]) | Activity [7] |
| --- | --- | --- | --- | --- | --- | --- | --- | --- |
| 3.6 µM | 4.7 µM | – | O=[N+]([O-])c1ncn(Cc2cn(-c3ccc(C(F)(F)F)cc3)nn2)n1 | – | > 27.9 | > 50 µM | – | – |
| 2.89 µM | 4.7 µM | – | COc1cc(-n2cc(Cn3cnc([N+](=O)[O-])n3)nn2)cc(OC)c1OC | – | > 17.3 | > 50 µM | – | – |
| 1.45 µM | 4.7 µM | – | N#Cc1ccc(-n2cc(Cn3cnc([N+](=O)[O-])n3)nn2)cc1 | – | > 34.5 | > 50 µM | – | – |
| 1.35 µM | 4.7 µM | 5.86 | O=[N+]([O-])c1ncn(Cc2cn(-c3ccccc3)nn2)n1 | – | > 37 | > 50 µM | – | – |
| 1.12 µM | 4.7 µM | 5.95 | COc1ccc(-n2cc(Cn3cnc([N+](=O)[O-])n3)nn2)cc1OC | – | > 44.6 | > 50 µM | – | – |
| 1.11 µM | 4.7 µM | 5.95 | O=[N+]([O-])c1ncn(Cc2cn(-c3ccc(F)cc3)nn2)n1 | – | > 45 | > 50 µM | – | – |
| 0.84 µM | 4.7 µM | 6.07 | COc1ccc(-n2cc(Cn3cnc([N+](=O)[O-])n3)nn2)cc1 | – | > 59.5 | > 50 µM | – | – |
| 0.65 µM | – | – | COc1ccc(-n2cc(Cn3ccnc3[N+](=O)[O-])nn2)cc1OC | – | – | – | – | – |
| 0.61 µM | 4.7 µM | 6.21 | O=[N+]([O-])c1ccc(-n2cc(Cn3cnc([N+](=O)[O-])n3)nn2)cc1 | – | > 82 | > 50 µM | – | – |
| 0.33 µM | 4.7 µM | 6.48 | Cc1ccc(-n2cc(Cn3cnc([N+](=O)[O-])n3)nn2)cc1 | – | > 152 | > 50 µM | – | – |
| 0.31 µM | 4.7 µM | 6.5 | O=[N+]([O-])c1ncn(Cc2cn(-c3ccc(Cl)cc3)nn2)n1 | – | > 161 | > 50 µM | – | – |
| 0.22 µM | 4.7 µM | 6.65 | COc1cc(OC)cc(-n2cc(Cn3cnc([N+](=O)[O-])n3)nn2)c1 | – | > 227 | > 50 µM | – | – |
| 0.21 µM | 4.7 µM | 6.67 | CSc1ccc(-n2cc(Cn3cnc([N+](=O)[O-])n3)nn2)cc1 | – | > 238 | > 50 µM | – | – |
| 0.11 µM | 4.7 µM | 6.95 | O=[N+]([O-])c1ncn(Cc2cn(-c3ccc(Cl)c(Cl)c3)nn2)n1 | – | > 454 | > 50 µM | <=55 | – |
| 0.07 µM | 4.7 µM | 7.15 | O=[N+]([O-])c1ncn(Cc2cn(-c3ccc(Oc4ccccc4)cc3)nn2)n1 | – | > 714 | > 50 µM | – | – |
